The values that follow come from patent US20160213742A1, “COMPOSITIONS AND METHODS FOR THE TREATMENT OF FUNGAL INFECTIONS” (priority 2013, published 2016).

Type in all cases: cell-based
The subject of assay [1] is C. krusei ATCC 14243. Here is the method:
(§1) MIC and MEC assays were run as described in Example 31 with the following exceptions. Starting solutions of all antifungal agents were prepared in 100% DMSO. Stock concentrations were made at 50× the highest final assay concentration and serially diluted 2-fold, 16 times in a 96-well PCR plate (VWR 83007-374). Candida and Aspergillus suspensions from Sabouraud dextrose agar plate cultures were prepared in 0.85% saline at 0.5 McFarland standard (˜0.1 OD530 nm). Candida suspensions were diluted 1:500 in RPMI (MP Biomedicals, cat no. 1060124; buffered with MOPS and adjusted with NaOH to pH 7.0) to a concentration of ˜0.5-2.5×10^3 CFU/mL and Aspergillus suspensions were diluted 1:50 in RPMI to 0.4-5×10^4 CFU/mL final concentration. 98 μL of each cell suspension in RPMI were added to test wells in a 96-well assay plate (Costar cat. no. 3370). A Beckman Multimek 96 liquid handling robot was used to dispense 2 μL of each 50× stock compound into the plate containing 98 μL of each strain in RPMI (2% final solvent concentration). Plates were shaken then incubated at 35° C. for 24-48 h prior to reading. MIC values were read visually at 50% growth inhibition for echinocandins (24 h) and at 100% growth inhibition for amphotericin B (48 h). MEC values (24 h) were read with the aid of a microscope at the lowest echinocandin concentration where rounded/compact hyphal morphology was observed.

Assay [2] deals with C. albicans ATCC 90028. As to the method:
as §1

The next assay deals with C. tropicalis ATCC 750. Here is the method:
as §1

Assay [3] relates to C. parapsilosis ATCC 22019. As to the method:
as §1

Assay [4] deals with C. glabrata ATCC 90030. As to the method: as §1
Assay [5] deals with A. fumigatus ATCC 13073. In words: MEC assay (Example 32). The conditions noted are these: MEC values (24 h), rounded/compact hyphal morphology. As to the method:
as §1

The subject of assay [6] is A. fumigatus MYA-3626. In words: MEC assay (Example 32). As to conditions: MEC values (24 h), rounded/compact hyphal morphology. As to the method: as §1
The test system of the next assay is A. niger ATCC 16404. In words: MEC assay (Example 32). As to conditions: MEC values (24 h), rounded/compact hyphal morphology. As to the method: as §1
The next assay deals with A. flavus ATCC MYA-3631. In words: MEC assay (Example 32). As to conditions: MEC values (24 h), rounded/compact hyphal morphology. Here is the method: as §1
The test system of assay [7] is A. fumigatus MYA-4609. In words: MEC assay (Example 32). The conditions noted are these: MEC values (24 h), rounded/compact hyphal morphology. As to the method:
as §1

Assay [8] concerns Neutrophils purified from human peripheral blood. In words: Human Neutrophil Transwell Migration Assay. The conditions noted are these: 37° C., 45 minutes, % of the maximum migration possible. Put shortly:
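Neutrophils (~50,000–100,000) were placed above 5-micron transwell inserts with test compound in the lower chamber and allowed to migrate 45 min at 37° C. Migrated cells were quantified by ATP luminescence; medium-only background was subtracted and values expressed as % of cells added directly to the bottom well.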

Assay [9] has as its system C. krusei ATCC 14243. In words: microbe, parasite or virus in culture. The conditions noted are these: C. krusei ATCC 14243; RPMI pH 7.0, 35° C., 24-48 hr. The procedure, abridged:
(§2)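 Yeast colonies were suspended to a 0.5 McFarland standard and diluted 1:100, while Aspergillus suspensions were diluted to ~0.2-2.5×10^4 CFU/mL final. Organisms were then exposed to 2-fold compound series in RPMI, pH 7.0, at 35° C. for approximately 24-48 hr before visual MIC/MEC reading.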

For assay [10], the system named is C. albicans ATCC 90028. In words: microbe, parasite or virus in culture. As to conditions: C. albicans ATCC 90028; RPMI pH 7.0, 35° C., 24-48 hr. Put shortly:
as §2

For assay [11], the system named is C. parapsilosis ATCC 22019. In words: microbe, parasite or virus in culture. The conditions noted are these: C. parapsilosis ATCC 22019; RPMI pH 7.0, 35° C., 24-48 hr. Put shortly:
as §2

The subject of assay [12] is C. glabrata ATCC 90030. In words: microbe, parasite or virus in culture. As to conditions: C. glabrata ATCC 90030; RPMI pH 7.0, 35° C., 24-48 hr. Put shortly: as §2
For assay [13], the system named is A. fumigatus ATCC 13073. In words: MEC assay (Example 31). As to conditions: RPMI pH 7.0, 35° C., 24-48 hr. Put shortly:
as §2

Assay [14] relates to A. fumigatus MYA-3626. In words: MEC assay (Example 31). As to conditions: RPMI pH 7.0, 35° C., 24-48 hr. Put shortly:
as §2

Another assay concerns A. flavus MX 5948. In words: MEC assay (Example 31). The conditions noted are these: RPMI pH 7.0, 35° C., 24-48 hr. The procedure, abridged:
as §2

Another assay deals with A. fumigatus MX 5944. In words: MEC assay (Example 31). The conditions noted are these: RPMI pH 7.0, 35° C., 24-48 hr. The procedure, abridged: as §2
Assay [15] concerns A. fumigatus MYA-4609. In words: MEC assay (Example 31). As to conditions: RPMI pH 7.0, 35° C., 24-48 hr. Put shortly:
as §2

[16] abbreviates: C. krusei ATCC 14243, read at 50% growth inhibition for echinocandins (24 h), 100% for amphotericin B (48 h).
Where [17] appears, read: C. albicans ATCC 90028, read at 50% growth inhibition for echinocandins (24 h), 100% for amphotericin B (48 h).
Setting [18] is: C. tropicalis ATCC 750, read at 50% growth inhibition for echinocandins (24 h), 100% for amphotericin B (48 h).
The mark [19] stands for this setting: C. parapsilosis ATCC 22019, read at 50% growth inhibition for echinocandins (24 h), 100% for amphotericin B (48 h).
Setting [20] is: C. glabrata ATCC 90030, read at 50% growth inhibition for echinocandins (24 h), 100% for amphotericin B (48 h).

≈ marks a conversion by molar mass, not a printed value. Like-named read-outs stand apart in the source and are kept apart here. Starred links: 1 amine or outer side, 2 acyl side, 3 side chain; linkers in the order of their positions; H or OH if unused. Positions of bridges follow the written chain, without caps; N, C: chain ends. Non-standard residues stand in square brackets, D forms with d. Residues, ends and D or L forms follow the SMILES beside them. Groups on a side chain read outwards from the residue. *: point of attachment. Orn(4R-OH,5R-OCH2CH2NMe3+) = C[N+](C)(C)CCO[C@@H](N[*:3])[C@H](O)C[C@H](N[*:1])C(=O)[*:2]; pTerphenylCO(4''-OnC5H11) = CCCCCOc1ccc(-c2ccc(-c3ccc(C(=O)*)cc3)cc2)cc1; X1 = O=C([C@@H](N[*:1])[C@H](O)[C@@H](O)c1ccc(O)c(N[*:3])c1)[*:2]; Pro(3S-OH,4S-Me) = C[C@H]1CN[C@H](C(=O)O)[C@H]1O; Hyp = O=C(O)[C@@H]1C[C@@H](O)CN1; βAla = NCCC(=O)O; For = O=C*

For `CC[C@H](C)C[C@H](C)CCCCCCCCC(=O)N[C@H]1C[C@@H](O)[C@@H](OCCN)NC(=O)[C@@H]2[C@@H](O)CCN2C(=O)[C@H]([C@H](O)CCNC(=O)[C@H](Cc2ccccc2)NC(=O)[C@H](CC(C)C)NC(=O)[C@H](CC[S+](C)[O-])NC=O)NC(=O)[C@H]([C@H](O)[C@@H](O)c2ccc(O)cc2)NC(=O)[C@@H]2C[C@@H](O)CN2C(=O)[C@H]([C@@H](C)O)NC1=O` (stereo partly shown) [Compound 30], the MIC came to 32 µg/mL (≈ 20.9 µM) in the assay on C. krusei ATCC 14243 [1] (ATCC 14243, 24 h); 2 µg/mL (≈ 1.31 µM) against C. albicans ATCC 90028 [2] (ATCC 90028, 24 h); 2 µg/mL (≈ 1.31 µM) against C. tropicalis ATCC 750 (ATCC 750, 24 h); 32 µg/mL (≈ 20.9 µM) in assay [3] (ATCC 22019, 24 h); 8 µg/mL (≈ 5.23 µM) with C. glabrata ATCC 90030 [4] (ATCC 90030, 24 h). For the same compound, the MEC in the assay on A. fumigatus ATCC 13073 [5] turned out to be 0.25 µg/mL; with A. fumigatus MYA-3626 [6] it was 1 µg/mL; in the assay on A. niger ATCC 16404, 0.5 µg/mL; with A. flavus ATCC MYA-3631, 0.5 µg/mL; in the assay with A. fumigatus MYA-4609 [7], 0.5 µg/mL. Further, the “% Neutrophil Migration” value amounted to 105.2% in [8] (conc 0.001 μg/mL); 133.6% in assay [8] (conc 0.01 μg/mL); 234.3% in assay [8] (conc 0.1 μg/mL); 48.2% in assay [8] (conc 1 μg/mL); 19.7% in assay [8] (conc 10 μg/mL).

For the compound `CCCCCOc1ccc(-c2ccc(-c3ccc(C(=O)N[C@H]4C[C@@H](O)[C@@H](OCC[N+](C)(C)C)NC(=O)[C@@H]5[C@@H](O)[C@@H](C)CN5C(=O)[C@H]([C@@H](C)O)NC(=O)[C@H]([C@H](O)[C@@H](O)c5ccc(O)c(NC(=O)CCNC(=O)[C@H](Cc6ccccc6)NC(=O)[C@H](CC(C)C)NC(=O)[C@H](CCSC)NC=O)c5)NC(=O)[C@@H]5C[C@@H](O)CN5C(=O)[C@H]([C@@H](C)O)NC4=O)cc3)cc2)cc1.O=C[O-]` [Compound 31] ({pTerphenylCO(4''-OnC5H11)}-[Orn(4R-OH,5R-OCH2CH2NMe3+)]T[Hyp][X1]([βAla-Phe-Leu-Met-For])T[Pro(3S-OH,4S-Me)]; lactam 1-C), the MIC amounted to 0.5 µg/mL with C. krusei ATCC 14243 [1] (setting [16]); 0.5 µg/mL in the assay with C. albicans ATCC 90028 [2] (setting [17]); 0.25 µg/mL in the assay with C. tropicalis ATCC 750 (setting [18]); 0.5 µg/mL in assay [3] (setting [19]); 2 µg/mL in the assay on C. glabrata ATCC 90030 [4] (setting [20]). Moreover, the MEC was 0.015 µg/mL in the assay on A. fumigatus ATCC 13073 [5]; 0.06 µg/mL in the assay on A. fumigatus MYA-3626 [6]; 0.25 µg/mL in the assay with A. niger ATCC 16404; 0.06 µg/mL in the assay with A. flavus ATCC MYA-3631; 0.03 µg/mL in the assay with A. fumigatus MYA-4609 [7]. Moreover, the “% Neutrophil Migration” value in assay [8] (conc 0.001 μg/mL) is listed as 126.4%; in [8] (conc 0.01 μg/mL) it was 115.7%; in assay [8] (conc 0.1 μg/mL), 146.0%; in assay [8] (conc 1 μg/mL), 134.3%; in assay [8] (conc 10 μg/mL), 64.0%.

Regarding `C[C@@H]1[C@H](O)[C@@H](C)/C=C/C=C/C=C/C=C/C=C/C=C/C=C/[C@H](O[C@@H]2O[C@H](C)[C@@H](O)[C@H](N)[C@@H]2O)C[C@@H]2O[C@](O)(C[C@@H](O)C[C@@H](O)[C@H](O)CC[C@@H](O)C[C@@H](O)CC(=O)O[C@H]1C)C[C@H](O)[C@H]2C(=O)O` [amphotericin B, reference compound], the MIC against C. krusei ATCC 14243 [1] (setting [16]) was 1 µg/mL (≈ 1.08 µM); against C. albicans ATCC 90028 [2] (setting [17]) it was 0.5 µg/mL (≈ 0.541 µM); with C. tropicalis ATCC 750 (setting [18]), 1 µg/mL (≈ 1.08 µM); in assay [3] (setting [19]), 1 µg/mL (≈ 1.08 µM); in the assay on C. glabrata ATCC 90030 [4] (setting [20]), 1 µg/mL (≈ 1.08 µM); with C. krusei ATCC 14243 [9] it was 0.25-2 ^ μg/mL. Further, the MIC in the assay with C. albicans ATCC 90028 [10] was 0.12 to 1 µg/mL; in assay [11], 0.5 to 2 µg/mL; against C. glabrata ATCC 90030 [12], 0.25 to 1 µg/mL. Besides, the MEC with A. fumigatus ATCC 13073 [13] is 0.5 to 4 µg/mL; in the assay on A. fumigatus MYA-3626 [14], 0.5 to 2 µg/mL; in the assay with A. flavus MX 5948, 0.5 to 2 µg/mL; in the assay on A. fumigatus MX 5944, 0.5-2^ μg/mL; in the assay on A. fumigatus MYA-4609 [15], 0.5 to 4 µg/mL; in the assay with A. fumigatus ATCC 13073 [5] it was 0.25 µg/mL. For the same compound, the MEC in the assay on A. fumigatus MYA-3626 [6] worked out at 0.25 µg/mL; in the assay on A. niger ATCC 16404, 0.5 µg/mL; with A. flavus ATCC MYA-3631, 1 µg/mL; in the assay on A. fumigatus MYA-4609 [7], 1 µg/mL.
